Here are results for 90 molecules from a melting point compilation (Tetko et al.; mined from patent text by program, amines drawn as free bases though some values may be those of a salt).

Each structure is given as a SMILES string.

Turning to `CCCCc1ncc(/C=C(\Cc2cccs2)C(=O)O)n1Cc1ccc([N+](=O)[O-])cc1`, the melting point (as a rule, the temperature of the solid-liquid transition) lay in the range of 198 to 200 °C. Take `O=C(O)C1C2C=CC(C2)C1C(F)(F)F` (stereo not given): the melting point lay within 85 to 90 °C.

In the case of `O=C(Nc1ccc2c(c1)CCOC2)OCc1ccccc1`, the melting point was 142 to 145 °C. `O=C(Nc1ccc(-c2c[nH]c(=O)cn2)cc1)c1ccccc1` came in with a melting point above 300 °C. Next, `Cc1cc(-n2ccnc2)c2cccc(O)c2n1`: 192 to 196 °C; `NC(=S)NN=C(CCCCl)c1ccccc1`: 128 to 130 °C; `CCn1c(C)nc2cc(C(F)(F)F)c(OC)c([N+](=O)[O-])c21`: 84 to 85.5 °C. The result for `Fc1cccc(F)c1-c1nc2c(s1)NCCCC2` reads 143 to 144 °C; that for `CC1(C)Cc2cc(O)c(Cl)c(Cl)c2C1=O`, 273 °C; that for `O=C(Nc1cccc(Br)c1)NC1C(=O)N(CC23CC4CC(CC(C4)C2)C3)c2ccccc2N(c2ccccc2)C1=O` (stereo not given), 254 °C. The result for `CCCC(=O)Nc1c(C)c(C)c2c(c1C)C(c1ccc(C)cc1)C(C)(C)O2` (stereo not given) reads 138 to 139 °C.

Molecule `O=C(O)c1ccc(OC(F)=C(F)F)cc1` returned a melting point of 139 to 140 °C. The result for `O=C(O[C@@H]1CC[C@H]1Br)c1ccccc1` (relative stereo) reads 38 to 40 °C; that for `NS(=O)(=O)c1ccccc1C1CCOC1=O` (stereo not given), 141 to 146 °C; that for `O=c1c2ccc(F)cc2ncn1Cc1ccccc1`, 110 to 111 °C.

On to `O=C1C2CCCCN2C(=O)N1c1c(F)cc(Cl)c2nc(Cl)sc12` (stereo not given), for which the melting point is 168 to 170 °C.

Consider `CNS(=O)(=O)N1CCn2c(c(C(N)=O)c(Cl)c2-c2ccccc2)C1`, for which the melting point lay within 193 to 196 °C. `O=C(ON1C(=O)CCC1=O)c1ccccc1` had a melting point of 178 °C. For the molecule `N#CCC1COc2ccccc2O1` (stereo not given), the melting point fell in the range of 66 to 67 °C.

`COc1ccc(CN2C(=O)[C@@H](NC(=O)Cc3ccccc3)[C@H]2CNC(C)=O)c(OC)c1` (relative stereo) came in with a melting point of 205 to 207 °C. `NC(CF)(Cc1cccc(O)c1)C(=O)O` (stereo not given) showed a melting point of 227 °C. Regarding `CC(C(=S)c1cc(NC=O)ccn1)S(C)=O` (stereo not given), the melting point came to 132 °C. The result for `CC(C)n1nc(-c2sc(NC(=O)c3ccc(Cn4ccnc4)cc3)nc2-c2ccccc2)ccc1=O` reads above 250 °C; that for `CN1CCC(Oc2cc(Cl)ccc2C(N)=O)C1` (stereo not given), 122 to 123 °C; that for `O=C1CCCC(c2ccc(Cl)cc2)N1c1ccc(O)cc1` (stereo not given), 209 to 210 °C. `CCN(CC)S(=O)(=O)c1cc(C(=O)CCl)ccc1Cl` registered a melting point of 63 to 65 °C. Next, `NC(=O)c1c(F)ccc(OCc2nc(-c3ccc(O)cc3)no2)c1F`: 209 to 210 °C; `O=C(O)C1(c2ccc(Nc3nc(N4CCOCC4)nc4c3CCC4)cc2)CCC1`: 279 to 281 °C; `O=C(NC(=O)c1cc(Cl)cc(Cl)c1)NC1CN2CCC1CC2` (stereo not given): 253 to 254 °C.

With `CC(C)(C)NC(=O)CN1C(=O)C(N)CC(c2ccccc2F)c2ccccc21` (stereo not given), the melting point is 190 to 195 °C. In turn, `CC(=S)NCC1CN(c2ccc(N3CCC(=CC#N)C(F)C3)c(F)c2)C(=O)O1` (stereo not given) returned a melting point of 137 to 138 °C. The result for `CC(=O)c1c(C)[nH]c(-c2ccncc2)c1C` reads 205 to 207 °C; that for `CN(C(=O)c1c(Cl)cccc1Cl)c1cc(-c2ccc(Cl)cc2)on1`, 175 to 178 °C; that for `O=S(=O)(c1cc(Br)c(-c2ccc(Cl)cc2)[nH]1)C(F)(F)F`, 155 to 159 °C.

The molecule `COC(=O)Nc1cc(-c2ccc(S(C)(=O)=O)cc2)n(-c2ccc(F)cc2)n1` showed a melting point of 225 to 227 °C. The result for `COc1ccc(CC(=S)N2CCOCC2)cc1` reads 145 to 147 °C; that for `O=c1c2ccccc2sc2cc(OCC3CO3)cc(O)c12` (stereo not given), 161 °C. The result for `Cn1c(=O)nc(-c2ccccc2F)c2ccsc21` reads 222 to 223 °C; that for `CC(C)c1cc(N(C)C)cc2c1C(=O)N(COC(=O)c1c(Cl)cccc1Cl)S2(=O)=O`, 177 to 179 °C.

On to `CN(Cc1cccc2c1CN(C1CCC(=O)NC1=O)C2=O)C(=O)Nc1cccc2ccccc12` (stereo not given), for which the melting point is 292 to 294 °C.

`CCOC(=O)c1sc(NC(=O)c2cc(-c3cccs3)ccc2O)nc1-c1ccccc1` displayed a melting point of 213 to 214 °C. Regarding `N#CC1=C(C2CCNCC2)Nc2n[nH]cc2C1c1cccc(C#N)c1Br` (stereo not given), the melting point was above 270 °C. `Cc1cccc(C)c1N(C(=O)CN)C(=O)CCl` showed a melting point of 135 to 137 °C. In turn, `COc1ccc(-c2ccc(C(=O)Nc3cc4ncc(CN5CCCC5)cc4cc3Cl)cc2)cc1` had a melting point of 184 °C.

On to `CCCCCC#CCC#CCC#CCC#CCO`, for which the melting point is 54 to 56 °C. Molecule `CC1(C)SCNC1C(=O)O` (stereo not given) came in with a melting point of 209 to 210 °C.

`CONC(=O)Nc1ccc(-c2sc3c(c2CN(C)Cc2ccccc2)c(=O)n(-c2ccccc2)c(=O)n3Cc2c(F)cccc2F)cc1` displayed a melting point of 204 to 205 °C. Take `O=C1CCC(c2ccccc2)(c2ccccc2)C2CN(C(Cc3ccccc3)=NCc3ccco3)CC12` (stereo not given): the melting point came out at 128 °C. Molecule `CC(C)Nc1ccc(NC(=O)C2(C)CC2)cc1C(F)(F)F` gave a melting point of 100 to 102 °C. `Cc1ccc(SCc2ncon2)cc1` had a melting point of 53 °C. Next, `O=C1Nc2cccnc2N(C(=O)N2CCC(CCCN3CCCCC3)CC2)c2ccccc21`: 200 °C; `CCCC1=C(C#N)C(c2ccccc2Cl)c2c(n[nH]c2-c2ccc3ccccc3c2)N1` (stereo not given): above 270 °C. `O=C(CCl)Nc1ccc2[nH]c(=O)oc2c1` registered a melting point of 228 to 231 °C. Regarding `Nc1nc2c(ncn2COCCOC=O)c(=O)[nH]1`, the melting point lay within 225 to 227 °C. Molecule `O=C1Nc2ccc(Cl)cc2C1c1ncnc2nn(C3CCCCC3)cc12` (stereo not given) had a melting point of 294 to 298 °C. The result for `CCOc1ccc(C=CC(=O)c2c(OC)cc(OC)cc2OC(=O)CC)cc1` reads 105 °C; that for `O=C(CC1CCCCCC1=O)c1ccc(Br)cc1` (stereo not given), 124 to 127 °C; that for `COc1ccc(-c2cc(C(=O)NCc3ccccn3)c(=O)n(CC3CC3)n2)cc1`, 98.6 to 99.3 °C. Regarding `CC(C)n1nc(-c2nc(NCCN(C)C)c(N)nc2-c2ccccc2)ccc1=O`, the melting point fell in the range of 188 to 189 °C. Regarding `O=C1NCc2c1cc1ccc3c(c1c2-c1ccc(F)cc1)OCC3`, the melting point fell in the range of 302 to 305 °C.

Take `O=C1C(=O)N(CCCN2CCN(C(=O)N(c3ccccc3)c3ccccc3)CC2)c2ccccc21`: the melting point was 163 to 164 °C.

For the molecule `CCCCCC(C)C(C)c1cc(O)c2c(c1)OC(C)(C)C1=C2CN(CC(=O)NC(=O)NC)CC1` (stereo not given), the melting point lay within 145 to 147 °C. The result for `CC[C@@H](c1ccccc1)N(Cc1ccc(C(=O)OC)cc1OC)S(=O)(=O)c1ccc(Cl)cc1` reads 108 to 110 °C. Molecule `N#Cc1cc2c(c(-c3ccccc3Cl)c1)OC(CN)C2` (stereo not given) returned a melting point of 173 to 175 °C. For the molecule `CCOC(=O)c1c2ccc(CC(=O)NOCC(=O)N3CCOCC3)ccc-2c(C(=O)OCC)c1N`, the melting point lay within 196 to 198 °C.

Molecule `CCOC(=O)C1CCN(C(=O)CN2CCN(c3ccncc3)CC2)CC1` yielded a melting point of 102 to 104 °C. The result for `O=[N+]([O-])C=C1NCCCS1` reads 76 to 78 °C; that for `COC(=O)NC1=NC(c2cccc(C(F)(F)F)c2)CN1` (stereo not given), 173 to 174 °C; that for `CCOC(=O)c1c(N2CCN(C(=O)c3cccs3)CC2)c2cscc2[nH]c1=O`, 282 °C. Molecule `CCOC(=O)C1=C(N)NC(C)=C(C(=O)OC)C1c1ccccc1C#N` (stereo not given) registered a melting point of 224 °C. Molecule `CCc1nc2c(cnn2CC)c(NC2CCOCC2)c1CNC(=O)c1cc(C)cc(C(=O)OC)c1` showed a melting point of 89 to 93 °C.

`O=C(NCc1cocn1)c1ccnc(N2CCN(Cc3ccc(F)cc3)C2=O)c1` registered a melting point of 197 to 199 °C. The result for `CC1(C)CC(=O)c2c(SCc3ccccc3)sc(-c3cc[nH]n3)c2C1` reads 215 to 218 °C; that for `Clc1ccc2c(c1)CCC(N1CCCC1)=C2`, 117 to 118 °C. Regarding `CCOC(=O)c1c(C)cc(C(=O)O)c(NC=O)c1C`, the melting point lay in the range of 144 to 146 °C. Consider `O=C(CO)N1CCN(c2ccc(Nc3cc(-c4cnc5cc[nH]c5c4)cn4ccnc34)nc2)CC1`, for which the melting point was in the range of 218 to 220 °C. Turning to `O=C(NC1CCCCC1)c1c(O)c2ccccc2n(Cc2ccc(F)cc2)c1=O`, the melting point came to 168 °C.

`CCCCCc1c(C(=O)O)nn(-c2ccc(Cl)cc2Cl)c1-c1ccc(Cl)cc1` came in with a melting point of 187 °C.

`O=C(Nc1ccc2cc(CN3CCCCC3)ccc2c1)c1ccc(-c2ccc(F)cc2)nc1` gave a melting point of 218 to 219 °C. For the molecule `Nc1cccnc1NCc1ccc(Cl)cc1`, the melting point fell in the range of 123 to 125 °C. `OCC1OC(n2c(C(F)(F)F)nc3c(Cl)cc(Cl)cc32)C(O)C1O` (stereo not given) had a melting point of 162 °C. `COc1cc2ncnc(N3CCc4cc(OCc5ccccc5)ccc43)c2cc1OC`: the melting point fell in the range of 181 to 182 °C.

In turn, `CCCCc1nn(CCC)c(C(=O)O)c1Cc1ccc(C2(C(=O)O)CC=CC2)s1` came in with a melting point of 121 to 122 °C. The result for `CNc1nc(Nc2ccc(Cl)c(Cl)c2)ncc1NS(=O)(=O)Cc1ccccc1` reads 233 to 235 °C; that for `O=C(NCC(=O)N(O)CCCP(=O)(O)O)OCc1ccccc1`, 101 to 105 °C. In turn, `CC1(c2cn(-c3c(Cl)cc(C(F)(F)F)cc3Cl)nc2C#N)CC1(Br)Br` (stereo not given) had a melting point of 133 to 134 °C. For `CN1CCN(c2ccc(N/C=C3\C(=O)NC(=O)c4ccc(C#Cc5ccccc5)cc43)cc2)CC1`, the melting point fell in the range of 169 to 170 °C. For `O=C(O)C1Cc2ccccc2N1S(=O)(=O)c1ccc(-c2cccc(C(F)(F)F)c2)cc1` (stereo not given), the melting point lay within 108 to 112 °C. As to `CCCSc1cc(OCc2ccc(Cl)cc2)ccc1C`, the melting point is 35 to 36 °C. The result for `COc1ccc(Cn2ncc3nc(O)nc(O)c32)cc1` reads 288 to 292 °C.
